Results reported in patent publication US20220267352A1, “RAPAMYCIN ANALOGS AND USES THEREOF” (Anakuria Therapeutics, Inc., priority 2021, published 2022).

Tests used:
[1] = test system: p-Akt 1/2/3 (Ser473) in MCF-7 cells; assay: AlphaLISA Ultra pAKT assay; format: cell-based; conditions: Homo sapiens, 1.5 h; MCF7 cells, 90 min
Procedure, shortened: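 MCF-7 cells (16,000˜20,000 per well in 36 μL medium) were seeded in Corning 3701 plates for 20˜24 hour, refreshed with new medium for 90 minutes, then given 12 μL of 4× compound (0.5% final DMSO). Cells were lysed with 2× lysis buffer, and lysate was analyzed by AlphaLISA Ultra pAKT using acceptor and donor beads, read on an EnSpire reader.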

[2] = test system: pS6K1 T389 and pAkt S473 in PC3 cells; assay: Western blot based pS6K1 and pAKT assay at 24 and 48 hour timepoints; format: cell-based
Procedure, shortened: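 PC3 cells (500,000/well) were treated with compound for 24 to 48 h, then lysed in 1% Triton buffer. Equal protein from Bradford-normalized lysates was analysed by Western blot for pS6K1 T389 and pAkt S473 with Li-Cor infrared detection.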

[3] = test system: p-p70 S6 Kinase (Thr389) in MCF-7 cells; assay: AlphaLISA Ultra pS6K1 assay; format: cell-based; conditions: Homo sapiens, 1.5 h; MCF7 cells, 90 min
Procedure, shortened: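 Phospho-S6K1 (Thr389) quantified by AlphaLISA Ultra read-out (2 h acceptor, then 2 h donor beads) in lysates of MCF-7 cells. Cells were plated 20–24 h before, refed 2 h, exposed to compounds for 90 min at 0.5% final DMSO, and lysates stored at −80 °C.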

mTORC1 over mTORC2 = mTORC1 over mTORC2 selectivity by comparing pS6K1 and pAKT IC50; format: cell-based; conditions: by comparing pS6K1 and pAKT IC50, 90 min
Procedure, shortened: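 MCF-7 cells were treated with compounds (0.5% final DMSO) for 90 minutes in one protocol and 2 hours in the other, then lysed. Phospho-signal in lysates was read by bead-based donor/acceptor proximity assay. pS6K1 and pAKT IC50 values were compared to judge mTORC1 over mTORC2 selectivity, at 90 min and at 24 hrs.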

human adipocytes = test system: human adipocytes; parameters: dose or concentration left out as unconfirmed; conditions: therapeutic concentration; cited from earlier work
PC3 cells = conditions: 1 or 24 hour treatment; cited from earlier work
Lmna−/− mice = conditions: short-term treatment; cited from earlier work

Row | Structure (SMILES) | IC50 [1] | mTORC1 selective @ 24 hrs [2] | IC50 [3] | mTORC1 selective @ 90 min (mTORC1 over mTORC2) | AKT (PKB) Ser473 phosphorylation (human adipocytes) | glucose uptake (human adipocytes) | Akt phosphorylation (S473) (PC3 cells) | enhanced survival (Lmna−/− mice)
1 | CO[C@@H]1C[C@H](C[C@@H](C)[C@@H]2CC(=O)[C@H](C)/C=C(\C)[C@@H](O)[C@@H](OC)C(=O)[C@H](C)C[C@H](C)/C=C/C=C/C=C(\C)[C@@H](OC[C@@H]3COCCO3)C[C@@H]3CC[C@@H](C)[C@@](O)(O3)C(=O)C(=O)N3CCCC[C@H]3C(=O)O2)CC[C@H]1OCCO [I-85, (1R,9S,12S,15R,16E,18R,19R,21R,23S,24E,26E,28E,30S,32S,35R)-30-[[(2S)-1,4-dioxan-2-yl]methoxy]-1,18-dihydroxy-12-[(1R)-2-[(1S,3R,4R)-4-(2-hydroxyethoxy)-3-methoxy-cyclohexyl]-1-methyl-ethyl]-19-methoxy-15,17,21,23,29,35-hexamethyl-11,36-dioxa-4-azatricyclo[30.3.1.04,9]hexatriaconta-16,24,26,28-tetraene-2,3,10,14,20-pentone] | ≥ 1 µM | Yes | 0.001 to 0.01 µM | Yes | – | – | – | –
2 | COCCO[C@@H]1CC[C@@H](C[C@@H](C)[C@@H]2CC(=O)[C@H](C)/C=C(\C)[C@@H](OC)[C@@H](OC)C(=O)[C@H](C)C[C@H](C)/C=C/C=C/C=C(\C)[C@@H](OCCOC3COC3)C[C@@H]3CC[C@@H](C)[C@@](O)(O3)C(=O)C(=O)N3CCCC[C@H]3C(=O)O2)C[C@H]1OC [I-83, (1R,9S,12S,15R,16E,18R,19R,21R,23S,24E,26E,28E,30S,32S,35R)-1-hydroxy-18,19-dimethoxy-12-[(1R)-2-[(1S,3R,4R)-3-methoxy-4-(2-methoxyethoxy)cyclohexyl]-1-methyl-ethyl]-15,17,21,23,29,35-hexamethyl-30-[2-(oxetan-3-yloxy)ethoxy]-11,36-dioxa-4-azatricyclo[30.3.1.0^4,9]hexatriaconta-16,24,26,28-tetraene-2,3,10,14,20-pentone] | ≥ 1 µM | No | ≥ 1 µM | No | – | – | – | –
3 | CO[C@@H]1/C(C)=C/[C@@H](C)C(=O)C[C@@H]([C@H](C)C[C@@H]2CC[C@@H](O)[C@H](OC)C2)OC(=O)[C@@H]2CCCCN2C(=O)C(=O)[C@]2(O)O[C@@H](CC[C@H]2C)C[C@H](OCCOC2COC2)/C(C)=C/C=C/C=C/[C@@H](C)C[C@@H](C)C(=O)[C@@H]1OC [I-97, (1R,9S,12S,15R,16E,18R,19R,21R,23S,24E,26E,28E,30S,32S,35R)-1-hydroxy-12-[(1R)-2-[(1S,3R,4R)-4-hydroxy-3-methoxy-cyclohexyl]-1-methyl-ethyl]-18,19-dimethoxy-15,17,21,23,29,35-hexamethyl-30-[2-(oxetan-3-yloxy)ethoxy]-11,36-dioxa-4-azatricyclo[30.3.1.0^4,9]hexatriaconta-16,24,26,28-tetraene-2,3,10,14,20-pentone] | ≥ 1 µM | No | ≥ 1 µM | No | – | – | – | –
4 | CO[C@H]1C[C@@H]2CC[C@@H](C)[C@@](O)(O2)C(=O)C(=O)N2CCCC[C@H]2C(=O)O[C@H]([C@H](C)C[C@@H]2CC[C@@H](O)[C@H](OC)C2)CC(=O)[C@H](C)/C=C(\C)[C@@H](O)[C@@H](OC)C(=O)[C@H](C)C[C@H](C)/C=C/C=C/C=C/1C [rapamycin] | – | – | – | – | reduced AKT (PKB) Ser473 phosphorylation | reduced glucose uptake | strongly decreased Akt phosphorylation | ~50%
